{"source": "paper PMC3989207", "about": "“Subchronic Toxicological Study of Two Artemisinin Derivatives in Dogs” (PLoS ONE, 2014)", "key": {"[1]": {"tested_on": "Rats", "design": "method as in Akinlolu and Shokunbi, 2008 [41]", "conditions": "25 mg kg^−1 per day, i.m. for 7 days, ref Akinlolu and Shokunbi, 2008 [41]; cited from earlier work"}, "[2]": {"tested_on": "Rats", "design": "method as in Xiao et al. (2002) [31]", "conditions": "cited from earlier work"}, "[3]": {"assay": "Toxicokinetic analysis of plasma drug levels (HPLC)", "type": "in vivo, dog", "conditions": "for AUC: 6 mg kg^−1 daily, ART p.o.; for maximum plasma concentration after dosing: daily i.m. 6 mg kg^−1", "method": "(§1) The first day of treatment was regarded as day one in the study. […] Oral administration was performed about 2 h after feeding. ARM was administered by a bolus intramuscular infusion through a 25-gauge needle at a constant volume of 2 ml kg^−1 once a day into the gluteal and infraspinous muscles. Two dogs of each sex from each group were allowed to recover without further treatment for an additional 4 weeks.\nFor toxicokinetic analysis, blood samples were collected on weeks 1, 2, 4, 8 and 13 at 0 (before dosing), 0.5, 1, 2, 4, 8, 12 and 24 h after dosing. Approximately 1 ml blood was drawn from the antebrachial, cephalic or jugular vein of three animals of each sex per time point and deposited into heparinized tubes for immediate centrifugation at 3000 rpm at 4°C for 10 min. The plasma was then immediately transferred to 2 ml polypropylene tubes and stored on dry ice. Samples were stored at −80°C until HPLC analysis."}, "[4]": {"tested_on": "beagle dogs", "assay": "Hematology in the 13-week repeated-dose dog study", "type": "in vivo", "method": "as §1\n(§2) Blood samples were collected from the femoral vein of each dog prior to treatment and every 2 weeks after the first day of treatment. Hematology parameters were measured using an automated hematology analyzer (Sysmex, XT-2000iv, Toa Medical Electronics Co. Ltd., Kobe, Japan) using standard methods. Test parameters included hemoglobin (Hb) levels, the hematocrit (Hct) fraction, erythrocyte (RBC) count, leukocyte (WBC) count, neutrophilic granulocyte fraction (NE%), monocyte fraction (MO%), lymphocyte levels (LY%), platelet count (PLT), reticulocyte count (RET%) and RBC morphology. The following clinical chemistry parameters were measured using a Hitachi-7180 Chemistry Analyzer (High-Technologies Corporation, Tokyo, Japan) and standard methods: glucose, blood urea nitrogen, inorganic phosphorus, creatinine, total protein, albumin, calcium, aspartate aminotransferase (AST), alanine aminotransferase, alkaline phosphatase, total bilirubin, creatine kinase (CK), sodium, potassium and chloride.\nThe differential granulocytic and erythrocytic series (erythroid, myeloid blast cell count and the red ratio) were determined manually from blood smears."}, "[5]": {"design": "method as in Li et al. (2006)", "conditions": "applied to ARM plasma levels; ref Li et al. (2006); cited from earlier work"}, "[6]": {"tested_on": "beagle dogs", "assay": "Clinical chemistry in the 13-week repeated-dose dog study", "type": "in vivo", "method": "as §1, §2"}, "[7]": {"conditions": "oral 80 and 400 mg kg^−1 once every 2 weeks for 5 months, ref Xiao et al. (2002) [31]"}, "[8]": {"conditions": "oral high dose of 400 mg kg^−1, ref Xiao et al. (2002) [31]"}, "[9]": {"conditions": "week 2 until week 10 post-treatment, vs control groups (p<0.05)"}, "[10]": {"conditions": "weeks 4 and 6 post-treatment, vs control group (p<0.01)"}}, "note": "Where two headings read alike, the source gives them in different places."}
{"smiles": "CO[C@H]1O[C@@H]2O[C@@]3(C)CC[C@H]4[C@H](C)CC[C@@H]([C@H]1C)[C@@]24OO3", "note": "[ARM, artemether]", "values": [{"measurement": "Effect (toxicology)", "setting": "[1]", "value": "Damage of trapezoid nuclei, abnormalities in balance and coordination"}, {"measurement": "Hb levels", "setting": "[2]; [7]", "value": "reversible increase"}, {"measurement": "QT interval", "setting": "[2]; [7]", "value": "No changes"}, {"measurement": "reticulocyte count", "setting": "[2]; [7]", "value": "reversible reduction"}, {"measurement": "liver finding", "setting": "[2]; [8]", "value": "transient focal vesicle degeneration of the liver"}, {"measurement": "neuropathological alterations", "setting": "[2]; [8]", "value": "no evidence of neuropathological alterations"}, {"measurement": "AUC", "setting": "[3]; both sexes, beagle, dog, plasma, other: ART p.o., ARM i.m., 6 mg/kg, week 8, ARM i.m., dog plasma, read-out: AUC8w", "value": "10.9 ± 11.6", "unit": "ng·h/mL"}, {"measurement": "AUC", "setting": "[3]; both sexes, beagle, dog, plasma, other: ART p.o., ARM i.m., 6 mg/kg, week four, ARM i.m., dog plasma, read-out: AUC4w", "value": "739 ± 209", "unit": "ng·h/mL"}, {"measurement": "AUC(0-t)", "setting": "[3]; both sexes, beagle, dog, plasma, other: ART p.o., ARM i.m., 6 mg/kg, read-out: AUC93D", "value": "71.3 ± 56.6", "unit": "ng·h/mL"}, {"measurement": "Cmax", "setting": "[3]; both sexes, beagle, im, week four, 6 mg kg^−1 daily i.m., dog plasma, read-out: C max, w4", "value": "219 ± 41.3", "unit": "ng/mL"}, {"measurement": "half-life", "setting": "[3]; both sexes, beagle, im, week four, 6 mg kg^−1 daily i.m., dog plasma, read-out: T 1/2, w4 (biological half-life) (converted)", "value": "3 ± 1.16", "unit": "h"}, {"measurement": "Tmax", "setting": "[3]; both sexes, beagle, im, week four, 6 mg kg^−1 daily i.m., dog plasma, read-out: T max, w4", "value": "0.5 ± 0.03", "unit": "h"}, {"measurement": "maximum plasma concentration after dosing", "setting": "[3]; day 1", "value": "90.63 ± 24.99", "unit": "µg/L"}, {"measurement": "maximum plasma concentration after dosing", "setting": "[3]; week 4", "value": "219.10 ± 41.30", "unit": "µg/L"}, {"measurement": "maximum plasma concentration after dosing", "setting": "[3]; week 8", "value": "46.20 ± 13.15", "unit": "µg/L"}, {"measurement": "maximum plasma concentration after dosing", "setting": "[3]; week 13", "value": "43.85 ± 10.79", "unit": "µg/L"}, {"measurement": "Hematology (overall)", "setting": "[4]; Week 13, 6 mg kg^-1 per day", "value": "- (“-” = No effect)"}, {"measurement": "MO%", "setting": "[4]; females, after weeks 6, 8 and 10 (p<0.05)", "value": "significant increases"}, {"measurement": "Hb levels", "setting": "[4]; week 2", "value": "corresponding decrease"}, {"measurement": "RBC counts", "setting": "[4]; week 2", "value": "decrease"}, {"measurement": "LY%", "setting": "[4]; [9]", "value": "decreased"}, {"measurement": "NE%", "setting": "[4]; [9]", "value": "significantly increased"}, {"measurement": "WBC count", "setting": "[4]; [9]", "value": "significantly increased"}, {"measurement": "RET%", "setting": "[4]; week 10, males and females, vs peanut oil control group (p<0.05)", "value": "significant increase"}, {"measurement": "lowest observed neurotoxic effect level (plasma concentration)", "setting": "[5]", "value": 40.92, "unit": "ng/mL"}, {"measurement": "Clinical chemistry: AST(M)", "setting": "[6]; Week 13, males, 6 mg kg^-1 per day", "value": "↑↑AST(M)"}, {"measurement": "serum AST", "setting": "[6]; [10]", "value": "significant increases"}, {"measurement": "serum CK", "setting": "[6]; [10]", "value": "significant increases"}, {"measurement": "serum albumin levels", "setting": "[6]; weeks 4 and 10, same changes also in peanut oil only group", "value": "significant decrease"}]}
